System: 231-H2N cells
Assay: Clonogenic survival
Type: cell-based, human
Conditions: 24 h, amount equivalent to 2 μM 111In-BnDTPA-F3 at highest specific activity, from 100 ± 5%
Procedure: […] After incubation at 37°C for 24 h, 2 × 10^3 cells were seeded per well in a 6-well plate, and 2 mL of fresh growth medium was added. After 7 to 14 days, cell colonies were stained with methylene blue (2% methylene blue in water/methanol 1:1) and counted. Combination indices (CI) of ^111In with BnDTPA-F3 were determined as described by Edelman et al.. A CI < 0.9 indicates superadditivity.

Structure (SMILES): [Cl][111In]([Cl])[Cl] [111In chloride]
- clonogenic survival, equivalent amount of 111In chloride: 46 ± 4%

From PMC3298710, “^111In-BnDTPA-F3: an Auger electron-emitting radiotherapeutic agent that targets nucleolin” (EJNMMI Research, 2012)
